The structures appear in SMILES notation. Active and inactive are the calls of the source. The calls are words filed in the database; no cut-off is given here. Where a SMILES comes first, the peptide text is derived from it. The star is where a group is joined. Decanoyl = CCCCCCCCCC(=O)*; CH2Cl = ClC*

This experiment concerns the target Furin (Homo sapiens) (UniProt P09958). Description: Inhibition of furin in human HEK293FT cells assessed as HA5 maturation at 25 uM after 48 hrs by Western blotting analysis. It counts as cell-based. For orientation: In western blotting, separated proteins are transferred to a membrane and probed.

Chain of Furin (Homo sapiens) (P09958 whole entry): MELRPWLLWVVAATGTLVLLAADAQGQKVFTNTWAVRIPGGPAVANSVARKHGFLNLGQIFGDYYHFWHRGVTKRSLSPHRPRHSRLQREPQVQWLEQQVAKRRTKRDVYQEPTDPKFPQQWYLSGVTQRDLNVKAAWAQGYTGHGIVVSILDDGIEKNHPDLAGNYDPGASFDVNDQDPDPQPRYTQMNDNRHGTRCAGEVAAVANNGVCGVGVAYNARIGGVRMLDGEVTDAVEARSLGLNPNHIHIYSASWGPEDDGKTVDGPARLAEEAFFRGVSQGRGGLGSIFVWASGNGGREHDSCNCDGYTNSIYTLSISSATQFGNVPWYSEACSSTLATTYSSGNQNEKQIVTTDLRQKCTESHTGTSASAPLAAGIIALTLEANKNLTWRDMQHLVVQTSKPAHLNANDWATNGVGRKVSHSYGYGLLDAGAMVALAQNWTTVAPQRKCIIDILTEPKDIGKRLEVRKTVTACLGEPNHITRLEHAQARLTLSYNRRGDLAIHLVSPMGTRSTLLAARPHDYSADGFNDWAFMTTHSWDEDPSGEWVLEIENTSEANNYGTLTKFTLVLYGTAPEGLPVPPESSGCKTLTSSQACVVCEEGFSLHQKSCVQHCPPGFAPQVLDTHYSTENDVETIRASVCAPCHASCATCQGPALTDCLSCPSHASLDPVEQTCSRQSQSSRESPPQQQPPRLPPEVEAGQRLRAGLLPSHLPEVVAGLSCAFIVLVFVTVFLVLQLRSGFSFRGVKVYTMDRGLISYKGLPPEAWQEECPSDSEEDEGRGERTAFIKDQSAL

As to `CCCCCCCCCC(=O)N[C@@H](CCCNC(=N)N)C(=O)N[C@H](C(=O)N[C@@H](CCCCN)C(=O)N[C@@H](CCCNC(=N)N)C(=O)CCl)C(C)C` (Decanoyl-RVKR-CH2Cl), the inhibition entry was “Active”.

(Values after ChEMBL document CHEMBL3124763.)
